Columns and labels:
[1] = Half life in CD1 mouse at 1 mg/kg, iv by LC-MS/MS analysis; format: ADME, organism-based; conditions: in vivo
A549 [2] = assay: Antiproliferative activity against human A549 cells assessed as reduction in cell viability by MTT assay; format: functional, cell-based
SW-620 = assay: Antiproliferative activity against human SW620 cells assessed as reduction in cell viability incubated for 72 hrs by MTT assay; format: functional, cell-based; conditions: SW-620, 72 h
EKVX = assay: Antiproliferative activity against human EKVX cells assessed as cell growth inhibition incubated for 72 hrs by MTT assay; format: functional, cell-based
[3] = AUC in mouse plasma at 3 mg/kg, iv measured upto 24 hrs by LC-MS/MS analysis; format: ADME, organism-based; set-up: dose 3 mg/kg, time < 24 hrs, route iv; conditions: in vivo
[4] = Cmax in […] at 1 mg/kg, iv and measured upto 24 hrs by LC/MS/MS analysis; format: ADME, organism-based; set-up: time < 24 hrs, dose 1 mg/kg, route iv; conditions: in vivo
HCT-116 [5] = assay: Antiproliferative activity against human HCT-116 cells assessed as reduction in cell proliferation measured after 72 hrs by MTT assay; format: functional, cell-based; conditions: HCT-116, 72 h
HCT-8 = assay: Antiproliferative activity against human HCT-8 cells assessed as inhibition of cell growth; format: functional, cell-based
[6] = Clearance in […] at 3 mg/kg, iv incubated for 24 hrs by LC-MS/MS analysis; format: ADME, organism-based; conditions: in vivo
NCI-H460 = assay: Antiproliferative activity against human NCI-H460 cells assessed as reduction in cell viability incubated for 24 hrs by MTT assay; format: functional, cell-based; conditions: NCI-H460, 24 h
[7] = Half life in iv dosed human plasma; format: ADME, organism-based
[8] = Half life in human plasma after iv dosing; conditions: in vivo
CWR22R = assay: Cytotoxicity against human 22Rv1 cells assessed as cell growth inhibition; format: functional, cell-based
SK-MEL-5 = assay: Antiproliferative activity against human SK-MEL-5 cells assessed as reduction in cell viability; format: functional, cell-based
A-375 [9] = assay: Anticancer activity against human A375 cells assessed as reduction in cell viability incubated for 72 hrs by MTT assay; format: functional, cell-based; conditions: A-375, 72 h
DU-145 [10] = assay: Cytotoxicity against human DU-145 cells assessed as reduction in cell viability by SRB assay; format: functional, cell-based
[11] = Tmax in human plasma at 10 mg/kg, iv measured after 24 hrs; format: ADME, organism-based
NCI-H69 = assay: Antiproliferative activity against human NCI-H69 cells assessed as reduction in cell growth; format: functional, cell-based
HepG2 = assay: Cytotoxicity against human HepG2 cells assessed as reduction in cell viability incubated for 72 hrs by SRB assay; format: functional, cell-based; conditions: HepG2, 72 h
MDA-MB-231 = assay: Cytotoxicity against human MDA-MB-231 cells assessed as inhibition of cell growth incubated for 72 hrs by SRB assay; format: functional, cell-based; conditions: MDA-MB-231, 72 h
PC-3 [12] = assay: Cytotoxicity against human PC-3 cells assessed as reduction in cell growth incubated for 72 hrs by SRB assay; format: functional, cell-based; conditions: PC-3, 72 h
PC-3 [13] = assay: Cytotoxicity against human PC-3 cells assessed as reduction in cell viability incubated for 24 hrs by MTT assay; conditions: PC-3, 24 h
DU-145 [14] = assay: cells; conditions: Homo sapiens, DU-145, 24 h
Description: Cytotoxicity against human DU-145 cells assessed as inhibition of cell growth incubated for 24 hrs by MTT assay

LNCaP C4-2 [15] = assay: Cytotoxicity against human LNCaP C4-2 cells assessed as cell growth inhibition incubated for 24 hrs by MTT assay; format: functional, cell-based; conditions: LNCaP C4-2, 24 h
PC-3 [16] = assay: Anticancer activity against human PC-3 cells assessed as cell growth inhibition by sulforhodamine B assay; format: functional, cell-based
LNCaP C4-2 [17] = assay: Antiproliferative activity against human LNCaP C4-2 cells assessed as cell growth inhibition; format: functional, cell-based
M14 [18] = assay: Antiproliferative activity against human M14 cells assessed as inhibition of cell growth measured after 48 hrs by SRB assay; format: functional, cell-based; conditions: M14, 48 h
DU-145 [19] = assay: Cytotoxicity against human DU-145 cells assessed as inhibition of cell growth; format: functional, cell-based
M14 [20] = assay: Antiproliferative activity against human M14 cells assessed as reduction cell viability incubated for 48 hrs by MTT assay; format: functional, cell-based; conditions: M14, 48 h
A-375 [21] = assay: Cytotoxicity against human A-375 cells assessed as inhibition of cell growth; format: functional, cell-based
PC-3 [22] = assay: Cytotoxicity against human PC-3 cells assessed as inhibition of cell growth; format: functional, cell-based
L1210 = assay: Antiproliferative activity against mouse L1210 cells assessed as reduction in cell viability incubated for 48 hrs by MTT assay; format: functional, cell-based; conditions: L1210, 48 h
EL4 = assay: Cytotoxicity against mouse EL4 cells assessed as inhibition of cell proliferation incubated for 72 hrs by MTT assay; format: functional, cell-based; conditions: EL4, 72 h
A549 [23] = assay: Cytotoxicity against human A549 cells assessed as reduction in cell viability by MTT assay; format: functional, cell-based
MCF7 = assay: Cytotoxicity against human MCF7 cells assessed as inhibition of cell growth by MTT assay; format: functional, cell-based
HeLa = assay: Cytotoxicity against human HeLa cells assessed as inhibition of cell growth by MTT assay; format: functional, cell-based
[24] = Cytotoxicity against human HepG2 cells assessed as reduction in cell viability by MTT assay; format: functional, cell-based
HCT-116 [25] = assay: Cytotoxicity against human HCT-116 cells assessed as reduction in cell viability by MTT assay; format: functional, cell-based

CC[C@@]1(O)C(=O)OCc2c1cc1n(c2=O)Cc2cc3cc4c(cc3nc2-1)OCO4
half-life [1]: 1.8 h | IC50 (A549 [2]): 0.009 µM | IC50 (SW-620): 0.009 µM | IC50 (EKVX): 0.006 µM | AUC [3]: 82 ng·h/mL | Cmax [4]: 43 ng/mL | IC50 (HCT-116 [5]): 0.005 µM | IC50 (HCT-8): 0.005 µM | clearance [6]: 900 mL/min/kg | IC50 (NCI-H460): 0.003 µM

COCCn1c2c([n+](Cc3cnccn3)c1C)C(=O)c1ccccc1C2=O.[Br-] [SEPANTRONIUM BROMIDE]
half-life [7]: 26.3 h | half-life [8]: 17.2 h | AUC [3]: 1440 ng·h/mL | Cmax [4]: 10.7 ng/mL | IC50 (CWR22R): 0.011 µM | IC50 (SK-MEL-5): 0.004 µM | IC50 (A-375 [9]): 0.006 µM | IC50 (DU-145 [10]): 0.004 µM | clearance [6]: 795 mL/min/kg | Tmax [11]: 46 h

Oc1cc(CCCCc2cc(O)c(O)c(O)c2)cc(O)c1O
IC50 (NCI-H69): 6 µM

N#Cc1c(-c2ccc(Br)cc2)cc(-c2ccc(OCc3ccc(F)cc3)cc2)[nH]c1=O
IC50 (HepG2): 14.4 µM | IC50 (MDA-MB-231): 14.4 µM | IC50 (PC-3 [12]): 14.4 µM

Cc1cccc(Nc2nc3nonc3nc2N/N=C/c2ccc(-c3cccc(C(=O)O)c3)o2)c1C
IC50 (PC-3 [13]): 20 µM | IC50 (DU-145 [14]): 25 µM

COc1cccc(Nc2nc3ccccc3nc2Nc2cccc(OC)c2OC)c1OC
IC50 (PC-3 [13]): 24.8 µM | IC50 (LNCaP C4-2 [15]): 17.6 µM

Nc1nonc1C(=O)N/N=C1\c2ccccc2-c2nc3nonc3nc21
IC50 (PC-3 [16]): 4.3 µM | IC50 (PC-3 [13]): 4.3 µM | IC50 (LNCaP C4-2 [17]): 1.9 µM | IC50 (LNCaP C4-2 [15]): 1.9 µM

Oc1c(CN2CCCC2)cc(COCc2ccccc2)c2cccnc12
IC50 (M14 [18]): 3.2 µM | IC50 (DU-145 [19]): 3.4 µM | IC50 (M14 [20]): 2.5 µM | IC50 (A-375 [21]): 1.6 µM | IC50 (PC-3 [22]): 0.7 µM

CO[C@]12CC(=O)O[C@]13C(=O)c1c(cc4cc(O)c5c(c4c1O)CN(C)C5=O)C(=O)[C@]3(O[C@H]1CC[C@H](O)[C@H](C)O1)CO2
IC50 (L1210): 0.153 µM | IC50 (EL4): 0.112 µM

N#Cc1c(-c2ccc(F)cc2)cc(-c2ccc(OCc3ccc(F)cc3)cc2)[nH]c1=O
IC50 (HepG2): 14.4 µM | IC50 (MDA-MB-231): 14.4 µM | IC50 (PC-3 [12]): 14.4 µM

N#Cc1c(-c2ccc(Cl)cc2)cc(-c2ccc(OCc3ccc(F)cc3)cc2)[nH]c1=O
IC50 (HepG2): 14.4 µM | IC50 (MDA-MB-231): 14.4 µM | IC50 (PC-3 [12]): 14.4 µM

COc1ccc(-c2cc(-c3ccc(OCc4ccc(F)cc4)cc3)nc(N)c2C#N)cc1
IC50 (HepG2): > 100 µM | IC50 (MDA-MB-231): > 100 µM | IC50 (PC-3 [12]): > 100 µM

COc1ccc(-c2cc(-c3ccc(OCc4ccc(F)cc4)cc3)[nH]c(=S)c2C#N)cc1
IC50 (HepG2): 23 µM | IC50 (MDA-MB-231): 23 µM | IC50 (PC-3 [12]): 23 µM

Cc1cccc(Nc2nc3nonc3nc2N/N=C/c2ccc(-c3ccc(Cl)c([N+](=O)[O-])c3)o2)c1C
IC50 (PC-3 [13]): 4.8 µM | IC50 (DU-145 [14]): 7.2 µM

Oc1ccc(CCCCc2ccc(O)cc2)cc1
IC50 (NCI-H69): 3.9 µM

CC[C@@]1(O)C(=O)OCc2c1cc1n(c2=O)Cc2cc3c(-c4ccc(C(F)(F)F)cc4)c4c(cc3nc2-1)OCO4
IC50 (A549 [23]): 0.78 µM | IC50 (MCF7): 0.78 µM | IC50 (HeLa): 0.78 µM | IC50 [24]: 0.78 µM | IC50 (HCT-116 [25]): 0.78 µM

COc1ccc(-c2cc(-c3ccc(OCc4ccc(F)cc4)cc3)[nH]c(=O)c2C#N)cc1
IC50 (HepG2): 6.01 µM | IC50 (MDA-MB-231): 3.59 µM | IC50 (PC-3 [12]): 4.46 µM

— ChEMBL document CHEMBL5375997, “Small Molecule Inhibitors Targeting the "Undruggable" Survivin: The Past, Present, and Future from a Medicinal Chemist's Perspective” (J Med Chem, 2023)
